# Laboratory results from US11897898B2, “Pyridine macrocycle compounds as ASK1 inhibiting agents” (BIOGEN MA INC., priority 2018, dated 2024).
# Experiments:
# [1] = target: T1, ASK1 T838 auto phosphorylation (Homo sapiens, UniProt Q99683); assay: ASK1 (AUTO PHOS T838) assay in HEK-293T cells, MSD format; format: cell-based; conditions: HEK-293T cells transfected with ASK1-V5, 1 hr compound incubation
# T1 construct: ASK1-V5 tagged full length plasmid; expressed in transfected cells; host or cells: HEK-293T
# T1 sequence (Q99683 1-1374): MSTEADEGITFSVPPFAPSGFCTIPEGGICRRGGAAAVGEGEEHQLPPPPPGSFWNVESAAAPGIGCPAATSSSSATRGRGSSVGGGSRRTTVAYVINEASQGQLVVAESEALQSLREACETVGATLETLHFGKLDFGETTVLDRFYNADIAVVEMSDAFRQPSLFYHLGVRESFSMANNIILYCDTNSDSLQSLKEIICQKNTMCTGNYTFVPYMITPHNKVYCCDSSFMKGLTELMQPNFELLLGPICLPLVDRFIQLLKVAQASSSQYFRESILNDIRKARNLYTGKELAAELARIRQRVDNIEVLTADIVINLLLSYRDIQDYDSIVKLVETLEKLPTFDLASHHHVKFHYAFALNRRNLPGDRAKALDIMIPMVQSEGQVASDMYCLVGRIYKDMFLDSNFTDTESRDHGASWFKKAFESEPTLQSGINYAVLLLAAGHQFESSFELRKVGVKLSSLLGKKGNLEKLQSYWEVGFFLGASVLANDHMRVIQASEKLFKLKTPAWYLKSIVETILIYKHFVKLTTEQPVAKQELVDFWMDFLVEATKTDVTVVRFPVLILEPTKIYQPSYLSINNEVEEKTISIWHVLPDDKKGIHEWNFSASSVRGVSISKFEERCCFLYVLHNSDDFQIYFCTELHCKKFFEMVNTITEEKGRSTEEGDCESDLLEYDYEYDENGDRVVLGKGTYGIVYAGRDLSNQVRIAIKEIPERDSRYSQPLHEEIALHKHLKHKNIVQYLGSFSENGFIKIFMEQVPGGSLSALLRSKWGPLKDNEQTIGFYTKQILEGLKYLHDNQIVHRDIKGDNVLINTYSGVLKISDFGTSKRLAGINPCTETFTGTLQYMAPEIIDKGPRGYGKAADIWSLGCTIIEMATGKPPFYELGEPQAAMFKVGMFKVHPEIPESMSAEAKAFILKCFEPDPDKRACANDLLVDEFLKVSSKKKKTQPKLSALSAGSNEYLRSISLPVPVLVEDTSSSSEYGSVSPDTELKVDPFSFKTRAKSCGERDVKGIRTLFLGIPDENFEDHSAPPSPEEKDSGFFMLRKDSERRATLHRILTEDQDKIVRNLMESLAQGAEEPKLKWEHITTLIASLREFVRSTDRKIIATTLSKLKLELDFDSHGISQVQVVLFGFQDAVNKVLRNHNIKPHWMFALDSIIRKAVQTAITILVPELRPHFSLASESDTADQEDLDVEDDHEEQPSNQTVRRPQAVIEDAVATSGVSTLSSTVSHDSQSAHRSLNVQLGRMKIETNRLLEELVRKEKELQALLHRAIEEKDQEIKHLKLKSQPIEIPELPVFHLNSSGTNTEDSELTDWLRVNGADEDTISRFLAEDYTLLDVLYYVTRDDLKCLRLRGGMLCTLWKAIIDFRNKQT
# Method: ASK1 T838 auto phosphorylation was measured in HEK-293T cells using MSD assay format. HEK 293T cells were seeded in 15 cm plates at a density of 18 million cells and 20 mL DMEM with 10% FBS, Pen/Strep media. The plates were incubated at 37° C. overnight. Media on plates was changed to OPTI-MEM, serum free media and cells were transfected with 9 μg of ASK1-V5 tagged full length plasmid using Lipofectamine 2000 (Invitrogen) and the plates were incubated at 37° C. overnight. Cells were trypsinized, counted on Nexcellometer and plated into 96 well tissue culture plates with 100,000 cells/well and 200 μL media. Cells were incubated for 4 hr at 37° C. then ASK1 compounds were added using a HP 300e. Compounds were tested at 20 μM with 3 fold, 10 point dilution points then incubated for 1 hr at 37° C. A lysis buffer (Cell Signaling) was prepared with protease and phosphatase inhibitor and maintained at 4° C. until use. Media from cells was discarded and 120 μL of cold lysis buffer was added to the cells, the plate was shaken 4° C. for 1 hr. Lysate was mixed using Apricot liquid handler; aspirating up and down 16 times at high speed using 50 μL volume. 50 μL of cell lysates were transferred to a pre-coated MSD plates containing mouse anti-V5 antibody (1:500 dilution) and washed 3× with MSD wash buffer (TBST) and blocked with a 3% BSA solution. Plates were then incubated on a plate shaker overnight at 4° C. Plates were washed 3× with MSD wash buffer and 50 μL of rabbit anti-pASK1 T838 antibody was added to the wells and incubated for 2 hr at room temperature on a plate shaker. Plates were then washed and 50 μL of goat anti-rabbit sulfa-tag (1:500 dilution) was added to wells, and incubated for 1 hr at room temperature on a plate shaker. Plates were washed 3× and 150 μL of 2×MSD Read buffer was added to wells. Plates were immediately read on a MSD Instrument Reader where chemoluminecense signal was measured. Data was analyzed using Graph Pad or Genedata, the data was normalized and plotted, % activity versus log of compound concentration. The IC50 values were obtained from a 4 parameter fit.
# [2] = In vivo brain penetration (rat Kpuu study); conditions: brain and plasma (unbound), IV infusion in the carotid artery for four hours, 1 mg/kg, steady state, Kpuu=Cu,b/Cu,p
# Method: To evaluate the CNS penetration of the compounds described herein, several compounds were selected for in vivo rat Kpuu studies. In these experiments the compounds are administered via an IV infusion (using N,N-dimethylacetamide:ethanol:1,2-propylene glycol:water in a 1:1:3:5 ratio as the vehicle) in the carotid artery for a period of four hours (1 mg/kg, 0.1 mg/mL) to reach steady state. After this time the plasma and brain concentration levels are quantified, and the values are adjusted by the measured protein binding in plasma and brain homogenate to calculate the Kpuu (see Di, L.; Kerns, E. H. Blood-Brain Barrier in Drug Discovery (Wiley)) according to the equation below. Kpuu=Cu,b/Cu,p • Wherein: • Cu,b=Unbound concentration in brain (C×fu,b). (C=concentration at steady state; fu,b=fraction unbound in brain) • And in which: Cu,p=Unbound concentration in plasma (C×fu,p). (C=concentration at steady state; fu,p=fraction unbound in plasma)
# Plasma and brain protein binding values were generated via the Rapid Equilibrium Dialysis method. The compound of interest was incubated in K2EDTA plasma and brain homogenate (homogenized 1:7 (w:v) in 1×PBS) purchased from BioIVT (Westbury, N.Y.), opposite a buffered compartment of 100 mM Potassium phosphate/150 mM Sodium chloride, pH 7.4, at 1 μM for 4 hr and 6 hr respectively. At the conclusion of incubation samples were taken from both matrix and buffered compartments, matrix-matched using blank buffer and matrix, extracted with acetonitrile, diluted with water, and analyzed utilizing an Agilent RapidFire 365 high-throughput LC coupled with MS/MS detection via an AB Sciex 5500. Free fractions (fu) were then calculated by comparing internal standard/analyte peak-area ratios of matrix and buffered compartments. Cross-species brain protein binding was considered to be equivalent for the purposes of calculating free fraction (see Di, L., et al., (2011a) Species Independence in Brain Tissue Binding Using Brain Homogenates, Drug Metab Dispos 39:1270-1277).
# Total drug concentration in plasma and brain tissue was measured via well-established bioanalytical extraction (protein precipitation) and detection methods (LC-MS/MS). Brain tissues were homogenized 1:4 (w:v) with 1×PBS in MP Biomedicals Lysing Matrix D tubes via an MP Biomedicals FastPrep-24™ homogenizer and were then extracted alongside plasma samples by matrix-matching with blank K2EDTA plasma (purchased from BioIVT), followed by protein crash/extraction with acetonitrile, supernatant dry down under nitrogen, and reconstitution with an acidified aqueous/organic mixture before being measured against a calibration curve of the compound of interest prepared in plasma, matrix-matched with blank brain homogenate (generated with brains purchased from BioIVT), and similarly extracted. Reconstituted extracts were then analyzed via LC-MS/MS (AB Sciex 5500) utilizing a binary HPLC setup (Shimadzu LC-20ADvp) and reverse-phase chromatography gradient (ACE 3 C18-AR). Peak area ratios and a 1/x^2 regression fit were used to generate sample concentration values that, combined with plasma and brain protein binding values, were used to generate free drug concentration values and partitioning coefficient (Kpuu).
# ASK1/MAP3K5 = target: T2, ASK1/MAP3K5 (Homo sapiens, UniProt Q99683); assay: ASK1 enzyme assay (ASK1/MAP3K5 assay by Reaction Biology Corp., 33P-ATP filter-binding); format: biochemical; conditions: 20 μM myelin basic protein and 10 μM ATP; class symbols
# T2 construct: purchased Reaction Biology Corp. (Malvern, Pa.)
# T2 sequence (Q99683 1-1374): T1 sequence (Q99683 1-1374)
# Method: The protein kinase inhibitory activity of the compounds described herein were tested using the ASK1/MAP3K5 assay by Reaction Biology Corp. (Malvern, Pa.). The assay procedure follows (and is also available on the Reaction Biology Corp. website). • Base Reaction Buffer: 20 mM Hepes (pH 7.5), 10 mM MgCl2, 1 mM EGTA, • 0.02% Brij35, 0.02 mg/mL BSA, 0.1 mM Na3VO4, 2 mM DTT, 1% DMSO; • Substrate: 20 μM of myelin basic protein (MBP) and 10 μM ATP; • Protein kinase: ASK1/MAP3K5. • Reaction Procedure: • 1. Prepare indicated substrate in freshly prepared Base Reaction Buffer. • 2. Deliver any required cofactors to the substrate solution. • 3. Deliver indicated kinase into the substrate solution and gently mix. • 4. Deliver compounds in DMSO into the kinase reaction mixture by Acoustic; technology (Echo550; nanoliter range), incubate for 20 minutes at room temperature. • 5. Deliver ^33P-ATP (specific activity 10 μCi/μL) into the reaction mixture to initiate the reaction. • 6. Incubate kinase reaction for 2 hours at room temperature. • 7. Reactions are spotted onto P81 ion exchange paper. • 8. Detect kinase activity by filter-binding method.
IC50 ([1]; class symbols),Kp uu at 4 h [2],IC50 (ASK1/MAP3K5),IC50 [1],SMILES
≤ 100 nM,< 0.1,–,–,"Cc1ccc(-c2cnc3c(c2)C(=O)Nc2cccc(n2)-c2nncn2[C@@H](C)CCCO3)cn1 [Compound 19, (S)-10-Methyl-5^5-(6-methylpyridin-3-yl)-1^4H-6-oxa-3-aza-2(2,6),5(3,2)-dipyridina-1(3,4)-triazolacyclodecaphan-4-one]"
≤ 100 nM,< 0.1,–,–,"C[C@H]1CCCOc2ncc(N3CCN(C)CC3)cc2C(=O)Nc2cccc(n2)-c2nncn21 [Compound 10, (S)-10-Methyl-5^5-(4-methylpiperazin-1-yl)-1^4H-6-oxa-3-aza-2(2,6),5(3,2)-dipyridina-1(3,4)-triazolacyclodecaphan-4-one]"
≤ 100 nM,–,≤ 100 nM,–,"C[C@H]1CCCOc2ncc(-c3cnn(CCN(C)C)c3)cc2C(=O)Nc2cccc(n2)-c2nncn21 [Compound 25, (S)-5^5-(1-(2-(Dimethylamino)ethyl)-1H-pyrazol-4-yl)-10-methyl-1^4H-6-oxa-3-aza-2(2,6),5(3,2)-dipyridina-1(3,4)-triazolacyclodecaphan-4-one]"
–,–,1000 to 10000 nM,≥ 10000 nM,"C[C@@H]1CCCOc2ncc(Br)cc2C(=O)Nc2cccc(n2)-c2nncn21 (single isomer, unassigned) [Compound 2]"
–,–,1000 to 10000 nM,≥ 10000 nM,"C[C@@H]1CCCOc2ncc(C#N)cc2C(=O)Nc2cccc(n2)-c2nncn21 [Compound 37, (R)-10-Methyl-4-oxo-1^4H-6-oxa-3-aza-2(2,6),5(3,2)-dipyridina-1(3,4)-triazolacyclodecaphane-5^5-carbonitrile]"
